Reference: patent US10501464B2, “7-oxo-6-(sulfooxy)-1,6-diazabicyclo[3.2.1]octane-2-carboxamide containing compounds and their use in treating bacterial infections” (WOCKHARDT LIMITED, priority 2015, dated 2019)
Where two headings read alike, the source gives them in different places.

Tests used:
Test in all cases: Antibacterial activity, MIC by agar dilution (CLSI)
Type in all cases: cell-based
E. coli 7 MP = details: compound tested alone
Experimental: (§1) The biological activity of representative compounds according to the invention against various bacterial strains was investigated. In a typical study, overnight grown bacterial cultures were diluted appropriately and inoculated on the agar media containing doubling dilutions of the test compounds. Observations for growth or no growth was performed after 16-20 hours of incubation at 35±2° C. in the ambient air. The overall procedure was performed as per Clinical and Laboratory Standards Institute (CLSI) recommendations, (Clinical and Laboratory Standards Institute (CLSI), Performance Standards for Antimicrobial Susceptibility Testing, 20th Informational Supplement, M07-A9, Volume 32, No. 2, 2012). Molten Mueller Hinton Agar (BD, USA) containing serial dilutions of each antibacterial agent were poured on to the plates and allowed to solidify. Appropriate suspensions from the freshly grown cultures were prepared in normal saline so that about 10^4CFU/spot of the organism was delivered on to the drug containing agar plates using automated multipoint inoculator (Mast, UK). The plates were incubated in Biochemical oxygen demand (BOD) incubator at 37° C. for 18 hours and then examined for growth.
(§2) Method for the determination of MIC: The Minimum Inhibitory Concentration (MIC) determination for the combinations was carried out in Muller Hinton Agar (MHA) (BD, USA) according to Clinical and Laboratory Standards Institute (CLSI) recommendations, (Clinical and Laboratory Standards Institute (CLSI), Performance Standards for Antimicrobial Susceptibility Testing, 20th Informational Supplement, M 100-S20, Volume 30, No. 1, 2010). In short, the test strains were adjusted to deliver about 10^4CFU per spot with a multipoint inoculator (Applied Quality Services, UK). The plates were poured with MHA containing doubling concentration range of representative compounds according to present invention. The plates were inoculated and were incubated at 35° C. for 18 hour. […] The Table 2 depicts the antibacterial activity profile of compounds according to present invention against various multidrug resistant bacterial strains.

K. pneumoniae H 525 = details: compound tested alone
Experimental: as §1, §2

E. coli 13352 = details: compound tested alone
Experimental: as §1, §2

E. coli M 49 = details: compound tested alone
Experimental: as §1, §2

E. coli M 50 = details: compound tested alone
Experimental: as §1, §2

E. coli 13351 = details: compound tested alone
Experimental: as §1, §2

K. pneumoniae H 523 = details: compound tested alone
Experimental: as §1, §2

E. coli H 483 = details: Escherichia coli, H483, compound tested alone, read-out: MIC
Experimental: as §1, §2

[1] = system: K. pneumoniae ATCC 700603
Experimental: as §1, §2

K. pneumoniae H 522 = details: compound tested alone
Experimental: as §1, §2

E. coli M 138 = details: compound tested alone
Experimental: as §1, §2

E. coli M 36 = details: compound tested alone
Experimental: as §1, §2

K. pneumoniae H 521 = details: compound tested alone
Experimental: as §1, §2

E. coli 13353 = details: compound tested alone
Experimental: as §1, §2

P. mirabilis S 137B = details: compound tested alone
Experimental: as §1, §2

[2] = Escherichia coli, 7MP, read-out: MIC
[3] = Klebsiella pneumoniae, H525, K. pneumoniae H 525, read-out: MIC
[4] = Escherichia coli, 13352, E. coli 13352, read-out: MIC
[5] = Escherichia coli, M49, E. coli M 49, read-out: MIC
[6] = Escherichia coli, M50, E. coli M 50, read-out: MIC
[7] = Escherichia coli, 13351, E. coli 13351, read-out: MIC
[8] = Klebsiella pneumoniae, H523, K. pneumoniae H 523, read-out: MIC
[9] = Klebsiella pneumoniae, ATCC700603, compound tested alone, read-out: MIC
[10] = Klebsiella pneumoniae, H522, K. pneumoniae H 522, read-out: MIC
[11] = Escherichia coli, M138, E. coli M 138, read-out: MIC
[12] = Escherichia coli, M36, E. coli M 36, read-out: MIC
[13] = Klebsiella pneumoniae, H521, K. pneumoniae H 521, read-out: MIC
[14] = Escherichia coli, 13353, E. coli 13353, read-out: MIC
[15] = Proteus mirabilis, S137B, read-out: MIC

SMILES | MIC (E. coli 7 MP; [2]) [µg/mL] | MIC (K. pneumoniae H 525; [3]) [µg/mL] | MIC (E. coli 13352; [4]) [µg/mL] | MIC (E. coli M 49; [5]) [µg/mL] | MIC (E. coli M 50; [6]) [µg/mL] | MIC (E. coli 13351; [7]) [µg/mL] | MIC (K. pneumoniae H 523; [8]) [µg/mL] | MIC (E. coli H 483) [µg/mL] | MIC [1, 9] [µg/mL] | MIC (K. pneumoniae H 522; [10]) [µg/mL] | MIC (E. coli M 138; [11]) [µg/mL] | MIC (E. coli M 36; [12]) [µg/mL] | MIC (K. pneumoniae H 521; [13]) [µg/mL] | MIC (E. coli 13353; [14]) [µg/mL] | MIC (P. mirabilis S 137B; [15]) [µg/mL] | other results
O=C(NOC[C@H]1C[C@H](n2cnnn2)CN1)[C@@H]1CC[C@@H]2CN1C(=O)N2OS(=O)(=O)O [Example 12] | 8 | 4 | 2 | 16 | 2 | 4 | 4 | > 32 | > 32 | 4 | 2 | 2 | 4 | 2 | > 32 | 
O=C(NOC[C@H]1C[C@H](n2ncnn2)CN1)[C@@H]1CC[C@@H]2CN1C(=O)N2OS(=O)(=O)O [Example 11] | 8 | 2 | 2 | 16 | 2 | 4 | 4 | > 32 | > 32 | 4 | 2 | 2 | 4 | 2 | > 32 | 
O=C(NOC[C@H]1C[C@H](n2nccn2)CN1)[C@@H]1CC[C@@H]2CN1C(=O)N2OS(=O)(=O)O [Example 13] | 4 | 2 | 2 | 8 | 2 | 2 | 2 | > 32 | > 32 | 2 | 1 | 1 | 2 | 1 | > 32 | 
O=C(NOC[C@@H]1C[C@H](n2cnnn2)CN1)[C@@H]1CC[C@@H]2CN1C(=O)N2OS(=O)(=O)O [Example 4] | 4 | 4 | 2 | 8 | 2 | 4 | 4 | > 32 | > 32 | 4 | 2 | 2 | 4 | 2 | > 32 | 
Nc1cn([C@@H]2CN[C@H](CONC(=O)[C@@H]3CC[C@@H]4CN3C(=O)N4OS(=O)(=O)O)C2)cn1 [Example 16] | 8 | 4 | 2 | 8 | 2 | 2 | 4 | > 32 | > 32 | 4 | 2 | 2 | 4 | 2 | > 32 | 
O=C(NNC(=O)[C@@H]1CC[C@@H]2CN1C(=O)N2OS(=O)(=O)O)[C@@H]1C[C@@H](n2cccn2)CN1 [Example 32] |  |  |  |  |  |  |  |  |  |  |  |  |  |  |  | MIC (E. coli 7 MP): 16 µg/mL; MIC (K. pneumoniae H 525; K. pneumoniae H 525): 8 µg/mL; MIC (E. coli 13352; E. coli 13352): 4 µg/mL; MIC (E. coli M 49; E. coli M 49): 32 µg/mL; MIC (E. coli M 50; E. coli M 50): 4 µg/mL; MIC (E. coli 13351; E. coli 13351): 4 µg/mL; MIC (K. pneumoniae H 523; K. pneumoniae H 523): 8 µg/mL; MIC ([1]; compound tested alone): >32 µg/mL; MIC (K. pneumoniae H 522; K. pneumoniae H 522): 8 µg/mL; MIC (E. coli M 138; E. coli M 138): 4 µg/mL; MIC (E. coli M 36; E. coli M 36): 4 µg/mL; MIC (K. pneumoniae H 521; K. pneumoniae H 521): 8 µg/mL; MIC (E. coli 13353; E. coli 13353): 4 µg/mL; MIC (P. mirabilis S 137B): >32 µg/mL
O=C(NOC[C@@H]1C[C@H](n2ncnn2)CN1)[C@@H]1CC[C@@H]2CN1C(=O)N2OS(=O)(=O)O [Example 1, (2S,5R)-N-{[(2S,4S)-4-(2H-tetrazol-2-yl)pyrrolidin-2-yl]methyloxy}-7-oxo-6-(sulfooxy)-1,6-diazabicyclo[3.2.1]octane-2-carboxamide] | 8 | 4 | 4 | 16 | 2 | 4 | 4 |  | > 32 | 4 | 4 | 1 | 4 | 2 | > 32 | 
O=C(NNC(=O)[C@@H]1CC[C@@H]2CN1C(=O)N2OS(=O)(=O)O)[C@@H]1C[C@H](n2ncnn2)CN1 [Example 23] | 4 | 4 | 2 | 8 | 1 | 2 | 4 |  | > 32 | 4 | 2 | 1 | 4 | 1 | > 32 | 
O=C(NOC[C@@H]1C[C@H](n2cncn2)CN1)[C@@H]1CC[C@@H]2CN1C(=O)N2OS(=O)(=O)O [Example 9] | 2 | 2 | 2 | 4 | 1 | 2 | 2 |  | > 32 | 2 | 1 | 1 | 2 | 1 | > 32 | 
O=C(NOC[C@H]1C[C@H](n2ccnc2)CN1)[C@@H]1CC[C@@H]2CN1C(=O)N2OS(=O)(=O)O [Example 7] | 2 | 2 | 1 | 4 | 1 | 1 | 2 |  | > 32 | 2 | 1 | 0.5 | 2 | 0.5 | > 32 | 
